According to US11952369B2 (Kadmon Corporation, LLC, priority 2022, dated 2024):
Where “and” joins values, the source holds several entries; their conditions need not be identical. Equal entries are not always repeated. Structures can show the parent of a compound that is named as a salt. Marks after values point to notes of the source that are not given here.

How the values were obtained:
Solubility = assay type: physicochemical; conditions: water
ROCK2 = target: T1, ROCK2 (Rattus norvegicus, UniProt Q62868); assay: Inhibition of ROCK2 enzymatic activity, immunoabsorbed full length enzyme, S6 kinase substrate peptide, [γ33P]ATP; assay type: biochemical; conditions: for Ki: ROCK2
T1 construct: Full length rat ROCK1 and ROCK2 proteins were isolated from various tumor cell lines or tissues by immunoabsorption; endogenous in cells
T1 sequence (Q62868 whole entry): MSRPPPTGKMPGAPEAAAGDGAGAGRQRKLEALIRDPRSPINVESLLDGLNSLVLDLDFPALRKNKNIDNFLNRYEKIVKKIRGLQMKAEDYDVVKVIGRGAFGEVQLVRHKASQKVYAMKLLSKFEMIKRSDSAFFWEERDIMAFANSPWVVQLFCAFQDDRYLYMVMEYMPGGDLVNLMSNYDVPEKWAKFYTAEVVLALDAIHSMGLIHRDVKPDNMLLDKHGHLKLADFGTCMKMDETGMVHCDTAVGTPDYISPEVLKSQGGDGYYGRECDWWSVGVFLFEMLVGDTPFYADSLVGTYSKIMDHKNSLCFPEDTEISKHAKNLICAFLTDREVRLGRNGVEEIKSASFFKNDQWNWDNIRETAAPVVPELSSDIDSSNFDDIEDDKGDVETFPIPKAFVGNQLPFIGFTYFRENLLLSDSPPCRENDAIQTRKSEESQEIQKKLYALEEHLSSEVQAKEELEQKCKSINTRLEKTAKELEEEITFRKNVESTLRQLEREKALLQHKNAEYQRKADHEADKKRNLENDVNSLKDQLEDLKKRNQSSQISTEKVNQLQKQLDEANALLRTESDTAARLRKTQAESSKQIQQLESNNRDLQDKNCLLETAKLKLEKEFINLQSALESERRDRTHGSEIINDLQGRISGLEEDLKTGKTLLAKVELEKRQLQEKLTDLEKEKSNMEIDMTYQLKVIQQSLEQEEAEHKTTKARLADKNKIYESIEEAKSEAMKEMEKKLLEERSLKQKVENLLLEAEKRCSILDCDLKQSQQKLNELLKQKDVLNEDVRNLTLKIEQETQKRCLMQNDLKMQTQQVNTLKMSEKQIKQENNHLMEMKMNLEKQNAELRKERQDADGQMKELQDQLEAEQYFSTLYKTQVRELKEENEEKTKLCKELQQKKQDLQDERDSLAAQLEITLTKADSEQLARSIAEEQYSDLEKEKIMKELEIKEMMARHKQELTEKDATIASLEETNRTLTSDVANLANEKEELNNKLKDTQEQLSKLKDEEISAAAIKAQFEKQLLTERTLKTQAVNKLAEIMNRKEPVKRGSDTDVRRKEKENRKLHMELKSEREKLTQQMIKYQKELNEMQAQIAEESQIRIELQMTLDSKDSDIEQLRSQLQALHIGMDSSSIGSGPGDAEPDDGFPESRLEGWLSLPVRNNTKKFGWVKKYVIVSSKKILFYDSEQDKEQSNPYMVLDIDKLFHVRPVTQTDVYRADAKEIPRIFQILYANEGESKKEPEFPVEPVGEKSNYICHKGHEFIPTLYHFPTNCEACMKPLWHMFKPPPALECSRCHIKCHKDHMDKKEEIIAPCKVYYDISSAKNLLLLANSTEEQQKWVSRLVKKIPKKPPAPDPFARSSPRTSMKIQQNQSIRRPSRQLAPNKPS
Procedure: Full length rat ROCK1 and ROCK2 proteins were isolated from various tumor cell lines or tissues by immunoabsorption to 24-well microtiter plates pre-coated with antibodies specific for each isozyme. Reactions were initiated by the addition of S6 kinase substrate peptide, [γ33P]ATP, and study drug, and incubated at 37° C. for 20 minutes. Reactions were terminated by addition of phosphoric acid and the radioactivity was quantified using standard methods.

[1] = Phase 1 study part 2: mass balance recovery of total radioactivity in excreta; assay type: in vivo, human; conditions: oral 200-mg [14C]-belumosudil capsule
Procedure: (§1) For the mass balance and metabolic profiling study (part 2), following at least a 7-day washout from part 1, subjects received a single oral dose of a 200 mg [^14C]-belumosudil capsule containing NMT 9.8 MBq [^14C]. This level of radioactivity was selected based on human dosimetry calculations conducted by Public Health England that determined a radioactive oral dose of NMT 9.8 MBq would be necessary to permit adequate metabolite profiling of key samples. Taking the part 1 microtracer dose into account, the total committed effective dose subjects received in the study was 3 mSv, which falls within the International Commission on Radiological Protection Guidelines for Category IIb studies. Additionally, to remain within the limit for radioactive dose approved by the UK Administration of Radioactive Substances Advisory Committee, the target-specific activity of [^14C]-belumosudil was set to 90% of the threshold radioactive dosing limit.
Urine for total radioactivity and metabolite profiling and identification was collected before dosing (the first void of the day) and pooled from 0 to 6, 6 to 12, and 12 to 24 hours after dosing followed by daily (24-hour) collections until day 8/discharge. Urine samples were pooled per interval and stored at 2 to 8° C. pending analysis. Feces were collected from admission until before dosing and then daily (24-hour) collections until discharge. Fecal samples were pooled per time interval and stored at −20° C. pending analysis.
(§2) Total radioactivity whole-blood, plasma, and urine samples were prepared for LSC by mixing with scintillation fluid. In addition, aliquots of whole blood were solubilized with AquiGest tissue solubilization fluid and plasma samples were mixed with 10 mM of phosphate-buffered saline. Urine and fecal samples were pooled per subject by time interval before analysis. In addition, fecal samples were combusted using an automatic sample oxidizer prior to LSC. Radioactivity in all samples was measured using an LSC with automatic external standard quench correction (2300TR, 2900TR, and 3100TR Tri-Carb, Scintillation Counters; PerkinElmer, Waltham, Massachusetts), with samples counted for 4 minutes. The LLOQ was considered to be twice the background value for samples of the same type (1.39 [urine], 23.9 [feces], 35.5 [whole blood], and 30.9 [plasma] ng equivalents [free base]/g or mL).

[2] = Phase 1 study part 1: absolute bioavailability, oral 200-mg tablet plus [14C]-belumosudil IV microtracer, plasma PK; assay type: in vivo, human; conditions: 100 μg IV; for half-life: iv
Procedure: (§3) This was a single-center, nonrandomized, open-label, 2-part study in 5 healthy male subjects aged 30 to 65 years. All oral doses were administered following an overnight fast and a standard breakfast on the day of dosing.
(timed to occur at the expected maximum concentration [Cmax]). To determine absolute bioavailability, a microtracer dose was chosen as it negates the need for an IV formulation with good stability. Additionally, due to use of a very low dose, further nonclinical studies such as local tolerance and general toxicology studies were not warranted.
Blood samples for IV [^14C]-belumosudil PK analysis and total radioactivity were collected at −0.25, −0.16, −0.08, 0, 0.08, 0.16, 0.25, 0.5, 0.75, 1, 1.5, 2, 3, 4, 5, 6, 8, 10, 12, 22, 34, and 46 hours after the end of infusion (EOI). All samples were processed to plasma within 30 minutes of collection by centrifugation at 2000 g for 10 minutes at 4° C., and
Total [^14C]-belumosudil concentrations were determined by accelerator mass spectrometry (AMS). […] Selected samples were diluted with commercial plasma to ensure that concentrations would fall within the acceptable range for AMS analysis. The samples were converted to graphite through combustion to CO2 followed by reduction to graphite. The graphite targets were then analyzed by AMS (LLOQ of 0.00489, 0.00557, 0.00485, 0.00402, and 0.00372 ng equiv/mL for individual subjects). All ^14C data was background-corrected based on predose [^14C]-belumosudil concentrations.
Eluate fractions corresponding to [^14C]-belumosudil were collected before AMS analysis (LLOQ of 1.55 pg equiv/mL).
(§4) PK parameter estimates were used to calculate absolute bioavailability and metabolite-to-parent ratio.

[3] = Phase 1 study part 2: plasma and whole-blood PK after oral 200 mg [14C]-belumosudil capsule; assay type: in vivo, human; conditions: for F, AUCinf (bioavailability) / F, Cmax (bioavailability): oral [14C]-belumosudil 200-mg capsule vs IV [14C]-belumosudil dose of part 1; for half-life: 200 mg
Procedure: as §3, §1
Whole-blood samples for total radioactivity and plasma samples for metabolite pro-filing and identification were collected before dosing and 1, 4, 8, 12, 24, 48, 72, 96, 120, 144, and 168 hours after dosing. […] Whole-blood samples for total radioactivity were collected into tripotassium ethylene-diaminetetraacetic acid tubes and stored at 2 to 8° C. pending analysis. […] (metabolite profiling samples).
as §2, §4

patients with cGVHD = conditions: cited from earlier work
[4] = arithmetic mean (standard deviation), Part 1, [14C]-belumosudil
[5] = arithmetic mean (standard deviation), Part 1, total radioactivity
[6] = geometric mean (geometric CV %), Part 1, [14C]-belumosudil
[7] = geometric mean (geometric CV %), Part 1, total radioactivity
[8] = arithmetic mean (standard deviation), Part 2, [14C]-belumosudil 200-mg capsule
[9] = arithmetic mean (standard deviation), Part 2
[10] = arithmetic mean (standard deviation), Part 2, total radioactivity, 200-mg capsule
[11] = geometric mean (geometric CV %), Part 2, [14C]-belumosudil 200-mg capsule
[12] = geometric mean (geometric CV %), Part 2
[13] = geometric mean (geometric CV %), Part 2, total radioactivity, 200-mg capsule

CC(C)NC(=O)COc1cccc(-c2nc(Nc3ccc4[nH]ncc4c3)c3ccccc3n2)c1 [Belumosudil mesylate, 2-{3-[4-(1H-indazol-5-ylamino)-2-quinazolinyl]phenoxy}-N-(propan-2-yl) acetamide methanesulfonate (1:1)]
solubility in water (Solubility): practically insoluble in water

O=C(O)COc1cccc(-c2nc(Nc3ccc4[nH]ncc4c3)c3ccccc3n2)c1 [KD025m2, 2-(3-(4-(1H-indazol-5-ylamino)quinazolin-2-yl)phenoxy)acetic acid]
Ki (ROCK2): 338 ± 55 nM
inhibition of ROCK2 (Ki) relative to belumosudil (ROCK2; fold lower inhibition than belumosudil): approximately 6 fold

CC(N)C1CCC(C(=O)Nc2ccncc2)CC1 (centres unmarked) [Y-27362]
Ki (ROCK2): 45 ± 5 nM

CC(C)NC(=O)COc1cccc(-[14c]2nc(Nc3ccc4[nH]ncc4c3)c3ccccc3n2)c1 [[^14C]-Belumosudil]
radioactivity recovered in excreta [1]: 88.5%
radiolabeled dose recovered in urine [1]: < 5%
total radioactivity recovered in feces [1]: 84.6% and 85%
total radioactivity recovered in feces within the first 24 hours after dosing [1]: ≈ 27.4%
total radioactivity recovered in urine within the first 24 hours after dosing [1]: 3.8%
AUCextrap [2, 4]: 0.63 (0.46) %
AUCinf [2, 4]: 6720 (2220) ng or ng equiv × h/mL
AUClast [2, 4]: 6680 (2220) ng or ng equiv × h/mL
Clearanance [2, 4]: 264 (64.3) mL/min
Cmax [2, 4]: 4530 (830) ng or ng equiv/mL
Volume [2, 4]: 138 (59.8) L
Volume, ss [2, 4]: 54.1 (10.7) L
AUCextrap [2, 5]: 8.48 (2.84) %
Clearanance [2, 5]: 122 (29.0) mL/min
Volume [2, 5]: 194 (53.2) L
AUCextrap [2, 6]: 0.53 (66.3); %
AUCinf [2, 6]: 6480 (29.3); ng or ng equiv × h/mL
AUClast [2, 6]: 6440 (29.5); ng or ng equiv × h/mL
Cmax [2, 6]: 4480 (18.0); ng or ng equiv/mL
T1/2 (terminal half-life) [2, 6]: 5.86 (35.8); h
Volume [2, 6]: 130 (38.9); L
Volume, ss [2, 6]: 53.2 (20.6); L
AUCextrap [2, 7]: 8.09 (35.4); %
Clearanance [2, 7]: 120 (23.7); mL/min
Volume [2, 7]: 186 (35.4); L
Volume, ss [2, 7]: 98.2 (23.4) L
Tmax ([2]; male, human, plasma, 100 ug, median (min-max), Part 1 (n = 5), [14C]-belumosudil): 0.25 h
half-life ([2]; male, human, plasma, 100 ug, arithmetic mean (standard deviation), Part 1, [14C]-belumosudil, read-out: T1/2 (converted)): 6.15 h
half-life ([2]; male, human, plasma, 100 ug, geometric mean (geometric CV %), Part 1, [14C]-belumosudil, read-out: T1/2 (terminal half-life) (converted)): 5.9 h
AUCextrap [3, 8]: 3.08 (2.16) %
AUCinf [3, 8]: 8490 (2680) ng or ng equiv × h/mL
Clearanance (apparent clearance) [3, 8]: 435 (173) mL/min
F, AUCinf (bioavailability) [3, 9]: 63.8 (15.7)^b %
F, Cmax (bioavailability) [3, 9]: 63.8 (15.7)^b %
AUCextrap [3, 10]: 10.1 (2.79) %
Clearanance [3, 10]: 126 (59.7) mL/min
AUCextrap [3, 11]: 2.46 (92.9); %
AUCinf [3, 11]: 8100 (37.0); ng or ng equiv × h/mL
AUClast [3, 11]: 7850 (39.3); ng or ng equiv × h/mL
Clearanance (apparent clearance) [3, 11]: 412 (37.0); mL/min
Cmax [3, 11]: 1680 (32.1); ng or ng equiv/mL
F, AUCinf (bioavailability) [3, 12]: 62.2 (26.6)^b; %
F, Cmax (bioavailability) [3, 12]: 62.2 (26.6)^b; %
AUCextrap [3, 13]: 9.76 (31.7); %
Clearanance [3, 13]: 118 (46.1); mL/min
half-life ([3]; male, human, plasma, oral, arithmetic mean (standard deviation), Part 2, [14C]-belumosudil 200-mg capsule): 5.39 h
half-life ([3]; male, human, plasma, oral, geometric mean (geometric CV %), Part 2, [14C]-belumosudil 200-mg capsule): 5.11 h
Tmax ([3]; male, human, plasma, oral, median (min-max), Part 2 (n = 5), [14C]-belumosudil 200-mg capsule): 2 h

C=CC(=O)N1CCC[C@@H](n2nc(-c3ccc(Oc4ccccc4)cc3)c3c(N)ncnc32)C1 [ibrutinib]
discontinuation rate because of treatment-emergent adverse events (TEAEs) (patients with cGVHD): 43%
